≈ marks a conversion by molar mass, not a printed value.
How the values were obtained:
CB1R = conditions: cited from earlier work
[1] = Hygroscopicity and sorption by DVS; type: physicochemical
Experimental: The hygroscopicity and the sorption properties of polymorphic Form A of Compound 1 were assessed using DVS.

[2] = Approximate solubility at room temperature in various solvents; type: physicochemical
[3] = Solubility in water and biorelevant media; type: physicochemical; conditions: room temperature
[4] = Water activity experiments (IPA/H2O); type: physicochemical
[5] = Slurry at room temperature (solid form after three days); type: physicochemical
Experimental: Slurry experiments were conducted at room temperature in various solvent systems. […] After the suspension was stirred magnetically for three days at room temperature, the remaining solids were isolated for XRPD analysis (Table 14).

[6] = Slurry at 50 °C (solid form after two days); type: physicochemical
Experimental: Slurry experiments were conducted at 50 °C in various solvent systems. […] After the suspension was stirred magnetically for two days at 50 °C, the remaining solids were isolated for XRPD analysis (Table 15).

[7] = Solid vapor diffusion (solid form after seven days at RT); type: physicochemical
Experimental: Solid vapor diffusion experiments were conducted using various solvents. […] The 20-mL vial was then sealed with a cap and kept at RT for seven days allowing solvent vapor to interact with sample. The remaining solids were isolated for XRPD analysis (Table 16).

[8] = Excipient compatibility study (4 weeks at 50 °C/75% RH); type: physicochemical
Experimental: The mixtures were placed in open containers and stored at 50 °C and 75% Relative Humidity (RH) for 4 weeks.

human CB1R = molecular target: T1, human CB1R (Homo sapiens, UniProt P21554); assay: CB1R Human Cannabinoid GPCR Cell Based Antagonist cAMP Assay (HTRF, CHO-K1 cells, CP55940 EC80); conditions: antagonist mode, CP55940 EC80, 20 uM forskolin, read-out: IC50 functional activity of CB1R
T1 construct: expressed in transfected cells; host or cells: CHO-K1
T1 sequence (P21554 whole entry): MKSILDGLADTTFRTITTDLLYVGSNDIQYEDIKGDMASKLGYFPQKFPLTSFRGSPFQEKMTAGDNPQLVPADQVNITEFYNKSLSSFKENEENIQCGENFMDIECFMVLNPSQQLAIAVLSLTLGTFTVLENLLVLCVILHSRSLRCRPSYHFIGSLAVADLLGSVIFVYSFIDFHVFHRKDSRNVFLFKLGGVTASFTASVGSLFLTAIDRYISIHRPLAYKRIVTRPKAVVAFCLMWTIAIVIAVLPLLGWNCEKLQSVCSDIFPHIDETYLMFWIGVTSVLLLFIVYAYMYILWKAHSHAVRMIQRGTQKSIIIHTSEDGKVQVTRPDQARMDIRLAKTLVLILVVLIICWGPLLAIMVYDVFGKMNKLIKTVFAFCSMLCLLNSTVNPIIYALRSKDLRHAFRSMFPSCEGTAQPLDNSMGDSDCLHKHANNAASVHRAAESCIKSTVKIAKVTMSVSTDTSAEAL
Experimental: CB1R Human Cannabinoid GPCR Cell Based Antagonist cAMP Assay
Evaluation of the potency (IC50) of Compound 1 for the human CB1R in stably transfected CHO-K1 cells was determined in a cAMP cell based assay using HTRF detection method. Cells were seeded in a total volume of 20 μL into white walled, 384-well microplates and incubated at 37 °C overnight prior to testing. Prior to testing cell plating media was exchanged with 10 μL of Assay buffer (HBSS+10 mM HEPES). Briefly, intermediate dilution of sample stocks was performed in assay buffer to generate a sample at 4× the final testing concentration. 5 μL of 4× sample was added to cells and incubated at 37 °C for 30 minutes. 5 μL of CP55940 at 4× the final EC80 concentration in 4× forskolin reagent (at 80 uM) was added and cells incubated for 37 °C for 30 minutes. The final concentration of forskolin in the assay was 20 uM. Final assay vehicle concentration was 1%. The results are expressed as a percent inhibition of CP55940 in antagonist mode.

obese C57BL/6J DIO mice = assay: Mouse DIO Obesity Study (four weeks, oral once a day); type: in vivo; conditions: 4 weeks
Experimental: To determine if Compound 1 might have anti-obesity activity through CB1R antagonism a four week in vivo study in obese C57BL/6J DIO mice was initiated to investigate weight gain, food intake and fasting blood glucose levels (see Table 62 for experimental design). A GMP lot of Compound 1 at different doses was evaluated and compared to DIO mice dosed with vehicle alone. The compound was formulated as a homogenous suspension with Vitamin-E-TPGS, PEG400, Glycerol, Methylcellulose, 10 mM Sodium Citrate buffer pH6 and water. Animals were orally gavaged once-a-day with either test article or vehicle for 4 weeks.

rats = assay: 28-day GLP rat toxicity study; type: in vivo
From the text: The same suspension formulation used in the mouse obesity model was used for the rat GLP toxicity study.

For `Cc1c(C(=O)NN2CCCCC2)nn(-c2ccc(Cl)cc2Cl)c1-c1ccc(Cl)cc1` [Rimonabant], the “cardiometabolic parameters (waist circumference, hemoglobin A1c, HDL, plasma cholesterol, triglycerides)” value (CB1R; clinical trials, obese people) is listed as “improved multiple cardiometabolic parameters”, the weight loss (CB1R; clinical trials, obese people) is listed as “weight loss in obese people” and the neuropsychiatric side-effects (CB1R; clinical use) is listed as “withdrawn from clinical use due to its neuropsychiatric side-effects”.

For `Cc1cc2ncc(-c3ccc(OC(C)(C)C)cc3)n2cc1-c1ccc(OC(C)C)cc1` [Polymorphic Form A of Compound 1, 3-(4-(tert-butoxy)phenyl)-6-(4-isopropoxyphenyl)-7-methylimidazo[1,2-a]pyridine], the “weight increase (DVS)” value ([1]; 80% RH) was ~ 0.28%, the “weight increase (DVS)” value ([1]; 95% RH) was “less than 0.5%” and the hygroscopicity ([1]; DVS) was “slightly hygroscopic”. For the same molecule, the solubility ([2]; organic solvent or mixture, 1-4-dioxane) was over 60 mg/mL, the solubility ([2]; organic solvent or mixture, 1-Butanol) was over 60 mg/mL and the solubility ([2]; organic solvent or mixture, 2-MeTHF) was over 56 mg/mL. For the same molecule, the solubility ([2]; organic solvent or mixture, 2 butanol) was over 54 mg/mL, the solubility ([2]; organic solvent or mixture, Acetone) was over 56 mg/mL and the solubility ([2]; organic solvent or mixture, Acetonitrile) was 28 to 56 mg/mL (≈ 67.5 to 135 mM). For the same molecule, the solubility ([2]; organic solvent or mixture, CPME) was over 46 mg/mL, the solubility ([2]; organic solvent or mixture, DCM) was over 48 mg/mL and the solubility ([2]; organic solvent or mixture, DMF) was over 60 mg/mL. For the same molecule, the solubility ([2]; organic solvent or mixture, DMSO) was 8 to 24 mg/mL (≈ 19.3 to 57.9 mM), the solubility ([2]; organic solvent or mixture, EtOH) was over 48 mg/mL and the solubility ([2]; organic solvent or mixture, IPAC) was over 48 mg/mL. For the same molecule, the solubility ([2]; organic solvent or mixture, Isopropanol) was over 52 mg/mL, the solubility ([2]; organic solvent or mixture, MEK) was over 52 mg/mL and the solubility ([2]; organic solvent or mixture, MIBK) was over 50 mg/mL. It also gave a solubility ([2]; organic solvent or mixture, MTBE) of 28 to 56 mg/mL (≈ 67.5 to 135 mM), a solubility ([2]; organic solvent or mixture, MeOH) of over 48 mg/mL and a solubility ([2]; organic solvent or mixture, THF) of over 50 mg/mL. For the same molecule, the solubility ([2]; organic solvent or mixture, Toluene) was over 46 mg/mL, the solubility ([2]; organic solvent or mixture, n-Heptane) was 2.8 to 9.3 mg/mL (≈ 6.75 to 22.4 mM) and the solubility ([2]; organic solvent or mixture, n-Propanol) was over 52 mg/mL. The solubility ([2]; water, H2O) was under 2.4 mg/mL, the solubility at 24 h ([3]; FaSSIF, pH 6.73) was 0.041 mg/mL (≈ 0.0989 mM) and the solubility at 24 h ([3]; FeSSIF, pH 5.07) was 0.224 mg/mL (≈ 0.54 mM). The solubility at 24 h ([3]; Simulated Gastric Fluid (SGF), pH 2.38) was 0.532 mg/mL (≈ 1.28 mM), the solubility at 24 h ([3]; Water, pH 6.63) was under 0.0125 mg/mL and the “Solid Form” value ([4]; H2O aw = 1) was “Form A”. The “Solid Form” value ([4]; IPA/H2O aw = 0.2, 982/18) was “Form A”, the “Solid Form” value ([4]; IPA/H2O aw = 0.4, 956/44) was “Form A + B” and the “Solid Form” value ([4]; IPA/H2O aw = 0.6, 919/81) was “Form C”. For the same molecule, the “Solid Form” value ([4]; IPA/H2O aw = 0.8, 847/153) was “Form C”, the “Solid Form” value ([5]; RT, 1,4 Dioxane:H2O (3:7)) was “Form A” and the “Solid Form” value ([5]; RT, ACN) was “Form A”. For the same molecule, the “Solid Form” value ([5]; RT, ACN:H2O (4:6)) was “Form A”, the “Solid Form” value ([5]; RT, DCM:n-Heptane (2:8)) was “Form A” and the “Solid Form” value ([5]; RT, DMF:H2O (3:7)) was “Form B”. The “Solid Form” value ([5]; RT, DMSO) was “Form A”, the “Solid Form” value ([5]; RT, DMSO:H2O (4:6)) was “Form B” and the “Solid Form” value ([5]; RT, EtOH:n-Heptane (2:8)) was “Form C”. The “Solid Form” value ([5]; RT, H2O) was “Form A”, the “Solid Form” value ([5]; RT, MEK:n-Heptane (2:8)) was “Form A” and the “Solid Form” value ([5]; RT, MTBE) was “Form A”. For the same molecule, the “Solid Form” value ([5]; RT, MTBE:n-Heptane (3:7)) was “Form D”, the “Solid Form” value ([5]; RT, THF:n-Heptane (2:8)) was “Form A” and the “Solid Form” value ([5]; RT, n-Heptane) was “Form A”. The “Solid Form” value ([6]; ACN) was “Form A”, the “Solid Form” value ([6]; ACN:H2O (1:1)) was “Form E” and the “Solid Form” value ([6]; DMSO) was “Amorphous”. For the same molecule, the “Solid Form” value ([6]; DSMO:H2O (1:1)) was “Amorphous”, the “Solid Form” value ([6]; EtOH:H2O (1:1)) was “Form E” and the “Solid Form” value ([6]; H2O) was “Form A”. For the same molecule, the “Solid Form” value ([6]; H2O:Acetone (7:3)) was “Form B”, the “Solid Form” value ([6]; H2O:EtOH (6:4)) was “Form B, Low Crystalline” and the “Solid Form” value ([6]; H2O:MeOH (7:3)) was “Form A”. For the same molecule, the “Solid Form” value ([6]; H2O:THF (7:3)) was “Form A”, the “Solid Form” value ([6]; H2O:n-Propanol (6:4)) was “Form B, Peak Missing at 2-” and the “Solid Form” value ([6]; MTBE) was “Form A”. The “Solid Form” value ([6]; n-Heptane) was “Form A”, the “Solid Form” value ([6]; n-Heptane:1,4-dioxane (19:1)) was “Gel” and the “Solid Form” value ([6]; n-Heptane:Acetone (19:1)) was “Form A”. The “Solid Form” value ([6]; n-Heptane:IPA (19:1)) was “Form B”, the “Solid Form” value ([6]; n-Heptane:Toluene (19:1)) was “Form A” and the “Solid Form” value ([7]; 2-MeTHF vapor) was “Gel”. For the same molecule, the “Solid Form” value ([7]; Acetone vapor) was “Form A”, the “Solid Form” value ([7]; CPME vapor) was “Form D” and the “Solid Form” value ([7]; EtOH vapor) was “Form F”. The “Solid Form” value ([7]; IPA vapor) was “Form A”, the “Solid Form” value ([7]; MEK vapor) was “Gel” and the “Solid Form” value ([7]; MTBE vapor) was “Form A”. The “Solid Form” value ([7]; Toluene vapor) was “Form A”, the “Solid Form” value ([7]; n-Propanol vapor) was “Form A, Low Crystalline” and the excipient compatibility [8] was “compatible with all excipients and blends in Table 22”. For the same molecule, the Appearance ([8]; open containers) was “White granular powder” and the degraded at 672 h ([8]; open containers, read-out: Total Related Substances) was 0.3%.

For `Cc1cc2ncc(-c3ccc(OC(C)(C)C)cc3)n2cc1-c1ccc(OC(C)C)cc1` [Compound 1, 3-(4-(tert-butoxy)phenyl)-6-(4-isopropoxyphenyl)-7-methylimidazo[1,2-a]pyridine], the IC50 (human CB1R) was 3.8 µM, the “food intake vs vehicle” value (obese C57BL/6J DIO mice; 30 mg/kg/day) was “significantly lower” and the “body weight vs vehicle” value (obese C57BL/6J DIO mice; 10 and 30 mg/kg/day) was “significant decreases in body weight”. For the same molecule, the “fasting blood glucose vs vehicle” value (obese C57BL/6J DIO mice; oral once-a-day, FIG. 16) was “no significant effect on fasting blood glucose”, the “percent weight gain vs vehicle” value (obese C57BL/6J DIO mice; oral once-a-day, group 4 and 5, FIG. 15) was “significant dose-dependent drop in percent weight gain” and the “food intake vs vehicle” value (obese C57BL/6J DIO mice; oral once-a-day, group 5, FIG. 15) was “significant reduced food intake”. For the same molecule, the “mean cholesterol vs vehicle” value (rats; 28-day GLP rat toxicity study, FIG. 17) was “significant dose-dependent decreases in mean cholesterol”, the cholesterol levels (rats; all doses tested including 10, 30 and 50 mg/kg/day, 28-day) was “significantly reduced” and the “CNS effect (functional observational battery)” value (rats; rat 28-day GLP toxicity study) was “no evidence of CNS effect”.

Source: US20260374769A1, “Crystalline Forms Of An Imidazopyridine Derivative” (Arisan Therapeutics Inc., priority 2023, published 2026)
